Measurements from patent USRE38257E1, “Piperdine derivatives and hypotensives containing the same” (Ajinomoto Co., Inc., priority 1988, dated 2003).

Tested on: male spontaneously hypertensive rats
Test: Decrease in systolic blood pressure in spontaneously hypertensive rats after intravenous bolus injection, indirect (tail-cuff) method
Assay type: in vivo, rat
Details: for Decrease in systolic blood pressure (mmHg) time after administration (hour) 0.5: 0.5 hour after administration; for Decrease in systolic blood pressure (mmHg) time after administration (hour) 4: 4 hours after administration
Protocol: As test animals, four male spontaneously hypertensive rats (weight 400 to 440 g) that were sufficiently adapted for feeding and in which hypertension was confirmed were used.
Physiological saline aqueous solution containing 2.5% Nicolle and 2.5% ethanol of sample was intravenously administered by bolus injection at a dose of 1 ml per 1 kg of body weight. Systolic blood pressure after administration was measured by the indirect (tail-cuff) method.

C1=Cc2ccccc2C(=C2CCN(CCCc3cccnc3)CC2)c2ccccc21.Cl.Cl [Example 270, 3-(4-(5H-Dibenzo[a,d]cyclohepten-5-ylidene)-1-piperidinyl)-1-(3-pyridyl)propane dihydrochloride]
Decrease in systolic blood pressure (mmHg) time after administration (hour) 0.5 (dose 10 mg/kg i.v. bolus): −18 mmHg
Decrease in systolic blood pressure (mmHg) time after administration (hour) 4 (dose 10 mg/kg i.v. bolus): 2 mmHg

CC(C)C(C#N)(CCCN1CCC(=C2c3ccccc3C=Cc3ccccc32)CC1)c1cccc(C(F)(F)F)c1.Cl (stereo not drawn) [Example 60, 5-(4-(5H-Dibenzo[a,d]cyclohepten-5-ylidene)-1-piperidinyl)-2-isopropyl-2-(3-trifluoromethylphenyl)valeronitrile hydrochloride]
Decrease in systolic blood pressure (mmHg) time after administration (hour) 0.5 (dose 10 mg/kg i.v. bolus): −121 mmHg
Decrease in systolic blood pressure (mmHg) time after administration (hour) 4 (dose 10 mg/kg i.v. bolus): −48 mmHg

Cl.N#CC(CCCN1CCC(=C2c3ccccc3C=Cc3ccccc32)CC1)c1cccc(C(F)(F)F)c1 (stereo not drawn) [Example 59, 5-(4-(5H-Dibenzo[a,d]cyclohepten-5-ylidene)-1-piperidinyl)-2-(3-trifluoromethylphenyl)valeronitrile hydrochloride]
Decrease in systolic blood pressure (mmHg) time after administration (hour) 0.5 (dose 10 mg/kg i.v. bolus): −87 mmHg
Decrease in systolic blood pressure (mmHg) time after administration (hour) 4 (dose 10 mg/kg i.v. bolus): −21 mmHg

1-Acetoxy-4-(4-(5H-dibenzo[a,d]cyclohepten-5-ylidene)-1-piperidinyl)-(3,4-dimethoxy)phenylButane hydroxybutane hydrochloride [Example 206]
Decrease in systolic blood pressure (mmHg) time after administration (hour) 0.5 (dose 10 mg/kg i.v. bolus): −61 mmHg
Decrease in systolic blood pressure (mmHg) time after administration (hour) 4 (dose 10 mg/kg i.v. bolus): −27 mmHg

Cl.O=c1[nH]c2ccccc2c(=O)n1CCN1CCC(=C2c3ccccc3C=Cc3ccccc32)CC1 [Example 28]
Decrease in systolic blood pressure (mmHg) time after administration (hour) 0.5 (dose 10 mg/kg i.v. bolus): −52 mmHg
Decrease in systolic blood pressure (mmHg) time after administration (hour) 4 (dose 10 mg/kg i.v. bolus): 4 mmHg

Cl.Cl.Nc1ccccc1CN1CCC(=C2c3ccccc3C=Cc3ccccc32)CC1 [Example 138, 1-(2-Aminobenzy)-4-(5H-Dibenzo[a,d]cyclohepten-5-ylidene)piperidine dihydrochloride]
Decrease in systolic blood pressure (mmHg) time after administration (hour) 0.5 (dose 10 mg/kg i.v. bolus): −129 mmHg
Decrease in systolic blood pressure (mmHg) time after administration (hour) 4 (dose 10 mg/kg i.v. bolus): −33 mmHg

COc1ccc(C(=O)C(C)CCN2CCC(=C3c4ccccc4C=Cc4ccccc43)CC2)cc1OC.Cl (stereo not drawn) [Example 274, 4-(4-(5H-Dibenzo[a,d]cyclohepten-5-ylidene)-1-piperidinyl)-2-methyl-3′,4′-dimethoxybutyrophenone hydrochloride]
Decrease in systolic blood pressure (mmHg) time after administration (hour) 0.5 (dose 10 mg/kg i.v. bolus): −102 mmHg
Decrease in systolic blood pressure (mmHg) time after administration (hour) 4 (dose 10 mg/kg i.v. bolus): −21 mmHg

C1=Cc2ccccc2C(=C2CCN(CC3CCc4ccccc4C3)CC2)c2ccccc21 (stereo not drawn) [Example 225, 4-(5H-Dibenzo[a,d]cyclohepten-5-ylidene)-1-(1,2,3,4-tetrahydro-2-naphthylmethyl)piperidine]
Decrease in systolic blood pressure (mmHg) time after administration (hour) 0.5 (dose 10 mg/kg i.v. bolus): −115 mmHg
Decrease in systolic blood pressure (mmHg) time after administration (hour) 4 (dose 10 mg/kg i.v. bolus): −31 mmHg

O=C(C1CCc2ccccc2C1)N1CCC(=C2c3ccccc3C=Cc3ccccc32)CC1 (stereo not drawn) [Example 224, 4-(5H-Dibenzo[a,d]cyclohepten-5-ylidene)-1-(1,2,3,4-tetrahydro-2-naphthoyl)piperidine]
Decrease in systolic blood pressure (mmHg) time after administration (hour) 0.5 (dose 10 mg/kg i.v. bolus): −69 mmHg
Decrease in systolic blood pressure (mmHg) time after administration (hour) 4 (dose 10 mg/kg i.v. bolus): −61 mmHg

C1=Cc2ccccc2C(=C2CCN(CCCOc3ccccc3)CC2)c2ccccc21.Cl [Example 20, 3-(4-(5H-Dibenzo[a,d]cyclohepten-5-ylidene)-1-piperidinyl)-1-phenoxypropane hydrochloride]
Decrease in systolic blood pressure (mmHg) time after administration (hour) 0.5 (dose 10 mg/kg i.v. bolus): −37 mmHg
Decrease in systolic blood pressure (mmHg) time after administration (hour) 4 (dose 10 mg/kg i.v. bolus): 2 mmHg

C1=Cc2ccccc2C(=C2CCN(CCCCc3ccc[nH]3)CC2)c2ccccc21.Cl [Example 293, 4-(4-(5H-Dibenzo[a,d]cyclohepten-5-ylidene)-1-piperidinyl)-1-(2-pyrolle)-1-butane hydrochloride]
Decrease in systolic blood pressure (mmHg) time after administration (hour) 0.5 (dose 10 mg/kg i.v. bolus): −122 mmHg
Decrease in systolic blood pressure (mmHg) time after administration (hour) 4 (dose 10 mg/kg i.v. bolus): 4 mmHg

CCC(=O)Nc1ccc(C=CCN2CCC(=C3c4ccccc4C=Cc4ccccc43)CC2)cc1.Cl [Example 370, 4-(5H-Dibenzo[a,d]cyclohepten-5-ylidene)-1-(4-propanoylaminocinnamyl)piperidine hydrochloride]
Decrease in systolic blood pressure (mmHg) time after administration (hour) 0.5 (dose 10 mg/kg i.v. bolus): −99 mmHg
Decrease in systolic blood pressure (mmHg) time after administration (hour) 4 (dose 10 mg/kg i.v. bolus): −69 mmHg

Cl.[O-][S+](CCCN1CCC(=C2c3ccccc3C=Cc3ccccc32)CC1)c1ccccc1 (stereo not drawn) [Example 239, 3-(4-(5H-Dibenzo[a,d]cyclohepten-5-ylidene)-1-piperidinyl)-1-propyl phenylsulphoxide hydrochloride]
Decrease in systolic blood pressure (mmHg) time after administration (hour) 0.5 (dose 10 mg/kg i.v. bolus): −68 mmHg
Decrease in systolic blood pressure (mmHg) time after administration (hour) 4 (dose 10 mg/kg i.v. bolus): −15 mmHg

CCCCCCN1CCC(=C2c3ccccc3C=Cc3ccccc32)CC1.Cl [Example 1, 4-(5H-Dibenzo[a,d]cyclohepten-5-ylidene)-1-hexylpiperidine hydrochloride]
Decrease in systolic blood pressure (mmHg) time after administration (hour) 0.5 (dose 10 mg/kg i.v. bolus): −67 mmHg
Decrease in systolic blood pressure (mmHg) time after administration (hour) 4 (dose 10 mg/kg i.v. bolus): 1 mmHg

Cl.N#Cc1ccc(CN2CCC(=C3c4ccccc4C=Cc4ccccc43)CC2)cc1 [Example 160, 1-(4-Cyanobenzyl)-4-(5H-dibenzo[a,d]cyclohepten-5-ylidene)piperidine hydrochloride]
Decrease in systolic blood pressure (mmHg) time after administration (hour) 0.5 (dose 10 mg/kg i.v. bolus): −3 mmHg
Decrease in systolic blood pressure (mmHg) time after administration (hour) 4 (dose 10 mg/kg i.v. bolus): −10 mmHg

Cl.O=[N+]([O-])c1ccccc1S(=O)(=O)NCCN1CCC(=C2c3ccccc3C=Cc3ccccc32)CC1 [Example 25, 4-(5H-Dibenzo[a,d]cyclohepten-5-ylidene)-1-(2-(2-nitrobenzenesulfonyl)aminoethyl)piperidine hydrochloride]
Decrease in systolic blood pressure (mmHg) time after administration (hour) 0.5 (dose 10 mg/kg i.v. bolus): −8 mmHg
Decrease in systolic blood pressure (mmHg) time after administration (hour) 4 (dose 10 mg/kg i.v. bolus): −7 mmHg

COc1ccc(C(C#N)(CCCN2CCC(=C3c4ccccc4C=Cc4ccccc43)CC2)C(C)C)cc1OC.Cl (stereo not drawn) [Example 31, 5-(4-(5H-Dibenzo[a,d]cyclohepten-5-ylidene)-1-piperidinyl)-2-(3,4-dimethoxyphenyl)-2-isopropylvaleronitrile hydrochloride]
Decrease in systolic blood pressure (mmHg) time after administration (hour) 0.5 (dose 10 mg/kg i.v. bolus): −61 mmHg
Decrease in systolic blood pressure (mmHg) time after administration (hour) 4 (dose 10 mg/kg i.v. bolus): −11 mmHg

CC(=O)N1CCCC(CCCN2CCC(=C3c4ccccc4C=Cc4ccccc43)CC2)C1.Cl (stereo not drawn) [Example 280, 1-(n-Acetyl-3-piperidinyl)-3-(4-(5H-Dibenzo[a,d]cyclohepten-5-ylidene)-1-piperidinyl)propane hydrochloride]
Decrease in systolic blood pressure (mmHg) time after administration (hour) 0.5 (dose 10 mg/kg i.v. bolus): −50 mmHg
Decrease in systolic blood pressure (mmHg) time after administration (hour) 4 (dose 10 mg/kg i.v. bolus): −11 mmHg

Cl.Fc1ccc(C2(CCCN3CCC(=C4c5ccccc5C=Cc5ccccc54)CC3)OCCO2)cc1 [Example 124]
Decrease in systolic blood pressure (mmHg) time after administration (hour) 0.5 (dose 10 mg/kg i.v. bolus): −90 mmHg
Decrease in systolic blood pressure (mmHg) time after administration (hour) 4 (dose 10 mg/kg i.v. bolus): −20 mmHg

COc1ccc(CN2CCC(=C3c4ccccc4C=Cc4ccccc43)CC2)cc1OC.Cl [Example 174, 4-(5H-Dibenzo[a,d]cyclohepten-5-ylidene)-1-(3,4-dimethoxybenzyl)piperidine hydrochloride]
Decrease in systolic blood pressure (mmHg) time after administration (hour) 0.5 (dose 10 mg/kg i.v. bolus): −8 mmHg
Decrease in systolic blood pressure (mmHg) time after administration (hour) 4 (dose 10 mg/kg i.v. bolus): −16 mmHg

N-(2-(5H-Dibenzo[a,d]cyclohepten-5-ylidene)-1-piperidinyl)ethyl isonicotinamide hydrochloride [Example 244]
Decrease in systolic blood pressure (mmHg) time after administration (hour) 0.5 (dose 10 mg/kg i.v. bolus): −19 mmHg
Decrease in systolic blood pressure (mmHg) time after administration (hour) 4 (dose 10 mg/kg i.v. bolus): 4 mmHg

CC(C)C(C#N)(CCCN1CCC(=C2c3ccccc3C=Cc3ccccc32)CC1)c1ccc(Cl)c(Cl)c1.Cl (stereo not drawn) [Example 42, 5-(4-(5H-Dibenzo[a,d]cyclohepten-5-ylidene)-1-piperidinyl)-2-(3,4-dichlorophenyl)-2-isopropylvaleronitrile hydrochloride]
Decrease in systolic blood pressure (mmHg) time after administration (hour) 0.5 (dose 10 mg/kg i.v. bolus): −66 mmHg
Decrease in systolic blood pressure (mmHg) time after administration (hour) 4 (dose 10 mg/kg i.v. bolus): −14 mmHg

Cl.Clc1ccc(CN2CCC(=C3c4ccccc4C=Cc4ccccc43)CC2)cc1 [Example 130, 1-(4-Chlorobenzyl)-4-(5H-Dibenzo[a,d]cyclohepten-5-ylidene)piperidine hydrochloride]
Decrease in systolic blood pressure (mmHg) time after administration (hour) 0.5 (dose 10 mg/kg i.v. bolus): −42 mmHg
Decrease in systolic blood pressure (mmHg) time after administration (hour) 4 (dose 10 mg/kg i.v. bolus): 9 mmHg

Cl.Clc1cccc(CN2CCC(=C3c4ccccc4C=Cc4ccccc43)CC2)c1 [Example 129, 1-(3-Chlorobenzyl)-4-(5H-Dibenzo[a,d]cyclohepten-5-ylidene)piperidine hydrochloride]
Decrease in systolic blood pressure (mmHg) time after administration (hour) 0.5 (dose 10 mg/kg i.v. bolus): −17 mmHg
Decrease in systolic blood pressure (mmHg) time after administration (hour) 4 (dose 10 mg/kg i.v. bolus): −1 mmHg

C1=Cc2ccccc2C(=C2CCNCC2)c2ccccc21.Cl [Example 349, 4-(5H-Dibenzo[a,d]cyclohepten-5-ylidene)-1-piperidine hydrochloride]
Decrease in systolic blood pressure (mmHg) time after administration (hour) 0.5 (dose 1 mg/kg i.v. bolus): −48 mmHg
Decrease in systolic blood pressure (mmHg) time after administration (hour) 4 (dose 1 mg/kg i.v. bolus): −43 mmHg

CC(=O)Nc1ccc(C=CCN2CCC(=C3c4ccccc4C=Cc4ccccc43)CC2)cc1.Cl.Cl [Example 232, 1-(4-Acetylaminocinnamyl)-4-(5H-dibenzo[a,d]cyclohepten-5-ylidene)piperidine dihydrochloride]
Decrease in systolic blood pressure (mmHg) time after administration (hour) 0.5 (dose 1 mg/kg i.v. bolus): −92 mmHg
Decrease in systolic blood pressure (mmHg) time after administration (hour) 4 (dose 1 mg/kg i.v. bolus): −85 mmHg

Cl.O=[N+]([O-])c1cccc2c1CC(CN1CCC(=C3c4ccccc4C=Cc4ccccc43)CC1)C2 (stereo not drawn) [Example 329, 2-(4-(5H-Dibenzo[a,d]cyclohepten-5-ylidene)-1-piperidinyl)methyl-4′-nitroindan hydrochloride]
Decrease in systolic blood pressure (mmHg) time after administration (hour) 0.5 (dose 10 mg/kg i.v. bolus): −34 mmHg
Decrease in systolic blood pressure (mmHg) time after administration (hour) 4 (dose 10 mg/kg i.v. bolus): −7 mmHg
